The values that follow come from ChEMBL document CHEMBL1144715, “Synthesis, checkpoint kinase 1 inhibitory properties and in vitro antiproliferative activities of new pyrrolocarbazoles” (Bioorg Med Chem, 2008).

Assay [1] has as its target T1, Serine/threonine-protein kinase Chk1 (Homo sapiens, UniProt O14757).
T1 sequence (O14757 whole entry): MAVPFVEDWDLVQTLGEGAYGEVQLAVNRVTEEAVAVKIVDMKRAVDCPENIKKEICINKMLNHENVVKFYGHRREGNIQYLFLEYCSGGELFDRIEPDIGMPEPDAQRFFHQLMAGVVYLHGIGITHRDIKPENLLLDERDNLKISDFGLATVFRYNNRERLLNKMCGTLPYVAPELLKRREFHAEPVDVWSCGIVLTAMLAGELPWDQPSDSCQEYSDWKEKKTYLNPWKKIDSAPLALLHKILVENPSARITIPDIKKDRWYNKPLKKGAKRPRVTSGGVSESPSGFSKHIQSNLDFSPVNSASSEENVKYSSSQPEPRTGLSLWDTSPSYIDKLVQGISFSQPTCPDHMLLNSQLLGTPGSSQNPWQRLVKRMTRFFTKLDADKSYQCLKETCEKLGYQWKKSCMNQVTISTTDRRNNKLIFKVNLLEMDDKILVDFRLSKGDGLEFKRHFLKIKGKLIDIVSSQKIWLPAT
The assay can be described thus: Inhibition of human Chk1.

Assay [2] deals with T2, Serine/threonine-protein kinase Chk1 (Homo sapiens) (UniProt O14757).
T2 sequence (whole entry): T1 sequence (O14757 whole entry)
The assay can be described thus: Inhibition of human Chk1 at 10 uM.

The test system of another assay is L1210. Briefly: Cytotoxicity against mouse L1210 cells after 4 hrs by microculture tetrazolium assay. It is filed as functional, cell-based. The settings on record: L1210, 4 h.
The next assay has as its system HCT-116. The assay can be described thus: Cytotoxicity against human HCT116 cells after 4 hrs by microculture tetrazolium assay. The settings on record: HCT-116, 4 h. It is filed as functional, cell-based.
The subject of the next assay is HT-29. Briefly: Cytotoxicity against human HT29 cells after 4 hrs by microculture tetrazolium assay. The format is functional, cell-based. The settings on record: HT-29, 4 h.
The target of assay [3] is Proto-oncogene tyrosine-protein kinase Src (Homo sapiens) (UniProt P12931). Briefly: Inhibition of Src at 10 uM after 20 mins.

The structures appear in SMILES notation.

Proto-oncogene tyrosine-protein kinase Src (Homo sapiens), sequence (P12931 2-536 limits assumed): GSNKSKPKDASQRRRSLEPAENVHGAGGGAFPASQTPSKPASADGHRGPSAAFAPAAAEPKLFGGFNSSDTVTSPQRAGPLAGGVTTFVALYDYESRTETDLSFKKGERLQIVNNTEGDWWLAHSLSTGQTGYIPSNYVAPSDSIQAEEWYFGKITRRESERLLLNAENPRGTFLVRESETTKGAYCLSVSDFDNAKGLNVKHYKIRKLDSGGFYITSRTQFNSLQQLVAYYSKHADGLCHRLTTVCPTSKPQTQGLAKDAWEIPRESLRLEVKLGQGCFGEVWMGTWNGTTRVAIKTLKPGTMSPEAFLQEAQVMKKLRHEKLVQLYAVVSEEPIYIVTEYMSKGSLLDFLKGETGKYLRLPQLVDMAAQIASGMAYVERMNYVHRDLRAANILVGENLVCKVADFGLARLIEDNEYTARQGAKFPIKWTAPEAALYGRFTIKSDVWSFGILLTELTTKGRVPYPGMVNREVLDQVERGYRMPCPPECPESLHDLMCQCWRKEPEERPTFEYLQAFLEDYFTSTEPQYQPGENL

One may read the IC50 as the point on the concentration scale where inhibition reaches its midpoint. For orientation: inhibition means the share of the control response that was lost under treatment. Higher therefore signals a response far below the control. As for `O=C1NC(=O)c2c1c1c(O)ccc3c1c1c2c2ccccc2n1[C@]1(O3)O[C@H](CO)[C@@H](O)[C@H](O)[C@H]1O`, the half-inhibitory concentration (IC50) in assay [1] was 1.92 µM; with L1210, 21.2 µM; in the assay on HCT-116, 46.4 µM; with HT-29, 57.8 µM. Besides, the inhibition came out at 73% in assay [2] and 9% in assay [3].
In the case of `O=C1NCc2c1c1c(c3c2[nH]c2ccccc23)C(=O)NC1=O`, the half-maximal inhibitory concentration (IC50) is 0.024 µM in assay [1], greater than 50 µM in the assay with L1210, 8.54 µM with HCT-116 and 0.58 µM in the assay with HT-29. This compound also registered an inhibition in assay [2] of 83%.
With `CC1(C)C(=O)c2c3c(c4c([nH]c5ccccc54)c2C1=O)C(=O)NC3`, the inhibition in assay [2] turned out to be 20%; in assay [3], 19%. The half-maximal inhibitory concentration (IC50) in the assay on L1210 stood at 2.2 µM; in the assay with HCT-116, 1.7 µM; in the assay with HT-29, 2.5 µM.
For the compound `O=C1NC(=O)c2c1c1[nH]cnc1c1[nH]c3ccccc3c21` [GRANULATIMIDE], the IC50 with L1210 stood at 2.8 µM; with HCT-116 it was 6.1 µM; in the assay with HT-29, 5.7 µM.
The like results for `O=C1NC(=O)c2c1c1c3ccccc3[nH]c1n1cncc21` [ISOGRANULATIMIDE] were, in that order, 10 µM, 13 µM and 13.7 µM.
The like results for `O=c1ccc(=O)c2c1c1[nH]c3ccccc3c1c1c(=O)[nH]c(=O)c21` were, in that order, 6.8 µM, 5.3 µM and 17.4 µM.
As for `O=C1NC(=O)c2c1c1c(c3c2[nH]c2ccccc23)C(=O)NC1`, in assay [1], the IC50 worked out at 0.051 µM.
As to `O=c1[nH]c(=O)c2c1c1[nH]c3ccccc3c1c1c(=O)[nH]c(=O)c21` [BIS-IMIDE A], the concentration for half-maximal inhibition (IC50) in the assay on L1210 was found to be 32.7 µM; with HT-29, 9.7 µM.
Regarding `CC1(C)C(=O)c2c3c(c4c([nH]c5ccccc54)c2C1=O)C(=O)NC3=O`, the IC50 in assay [1] is 14.5 µM; with L1210, 33 µM; with HCT-116, 32.7 µM; in the assay on HT-29, 38.5 µM. In assay [2], this compound gave an inhibition of 63%.
In the case of `O=C1NC(=O)c2c1c1c(O)ccc(O)c1c1[nH]c3ccccc3c21`, the results for the IC50 in the assay with L1210, with HCT-116 and in the assay on HT-29 were 1.1 µM, 3.1 µM and 5.6 µM, respectively.
